Laboratory results published in patent US20240001155A1, “REVERSAL OF CELLULAR SENESCENCE BY TREATMENT WITH LOW FREQUENCY ULTRASOUND” (Mechanobiologics, Inc., priority 2022, published 2024).

Experiments:
platelet = conditions: risk of causing thrombocytopenia; cited from earlier work
Vero cells [1] = test: Cell spread area after senescence induction; format: cell-based, African monkey; conditions: senescence induced by the agent, compared to normal control cells; FIG. 1C
Description: (§1) Vero cells were treated with the stressors including 200 μM H2O2, 4 mM of sodium butyrate (SB) or 25 μM of bleomycin sulphate (BS) and incubated for 36-48 hours. After washing with PBS and then replacing growth medium with fresh medium, cells were incubated for four days to confirm the growth arrest of senescent cells. […] Four criteria were used to determine if cells were senescent; (1) cell cycle arrest by determining the growth rate, (2) Increase in cell spread area, (3) development of senescence associated secretory phonotype (SASP) in culture medium, and (4) beta-gal staining. Images of cells were captured with an Evos microscope at 10× magnification after treatment and 48 hours post treatment.
Senescence was detected by the beta-galactosidase senescence staining kit as per manufacturer's protocol. Briefly, sub confluent senescent cells were stained by the SA-beta galactosidase (β-gal) staining solution and incubated overnight at 37° C. The β-gal-stained cells appeared blue and were senescent cells. The percentages of β-gal positive cells were determined by counting the number of blue cells and dividing by the total number of cells. Cell spread area was determined by capturing the mages of cells with a 10× objective using an Evos microscope. Then, ImageJ software was used to calculate spread area by manually encircling the cell periphery of each cell. A minimum of 150 cells was used for the analysis. To determine the SASP activity, the senescent cells were cultured for one to three days and then supernatant was collected from each dish. This supernatant was used to culture normal cells. Development of a senescence phenotype by the normal cells in supernatant medium confirmed that senescent cells were secreting SASP.

Vero cells [2] = test: Proliferation (growth rate, fold change in cell number) of cells after senescence induction; format: cell-based, African monkey; conditions: senescence induced by the agent; 48 hours of incubation; control cells approximately eight-fold change; FIG. 1B
Description: as §1
To measure growth by the increase in cell number, 15 random images were captured, then the average number of cells were determined, which was divided by the area of one frame to get the cell density (cells/cm^2). Then this seeding density was multiplied by the total area of the dish or well to obtain the total number of cells after ultrasound (US) treatment and after 48 hours of incubation. The total number of cells at 48 hours was divided by the total number of cells just after the treatment to determine the growth rate. A ratio was one would be an indication of no growth.

Sirtuin1 = test: LFU rejuvenation of senescent cells in presence of Sirtuin1 inhibitor; format: cell-based, Human; conditions: HFF cells with ultrasound treatment in presence of drug; FIG. 7
Description: Passage 15-24 HFF cells were treated with ultrasound at the optimized frequency, power and duty cycle. Cell proliferation was determined by counting the number of cells at the time of seeding and 48 hours after ultrasound (US) treatment. […] In the case of P24 HFF cells, they were treated with ultrasound and incubated for 96 hours prior to trypsinization, reseeding and incubation for 48 hours. Proliferation and morphology were measured after 48 hours of incubation.
FIG. 7A is a schematic of resveratrol and EX-527 treatment, followed by ultrasound treatment and medium change. FIG. 7B is a bar graph comparing the fold change in cell number of untreated control HFF cells in presence of EX-527.
FIG. 7C is a bar graph comparing the fold change in cell number of treated P19 cells in the presence of drug. FIG. 7D is a set of images comparing the immunofluorescence staining of Sirt1 in untreated and US treated HFF cells. FIG. 7E is bar graph comparing the sirt1 expression by intensity ratio of sirt1 and DAPI. Results are shown as mean±S.D. **p value <0.02 and ‘non-significant’ p value >0.05.

Compound | toxicity (platelet) | spread area (Vero cells [1]) | proliferation (fold change) (Vero cells [2]) | LFU rejuvenation of senescent cells (Sirtuin1)
CC1(C)CCC(c2ccc(Cl)cc2)=C(CN2CCN(c3ccc(C(=O)NS(=O)(=O)c4ccc(N[C@H](CCN5CCOCC5)CSc5ccccc5)c(S(=O)(=O)C(F)(F)F)c4)cc3)CC2)C1 [ABT263] | dose-limiting platelet toxicity | – | – | –
COc1cccc2c1C(=O)c1c(O)c3c(c(O)c1C2=O)C[C@@](O)(C(=O)CO)C[C@@H]3O[C@H]1C[C@H](N)[C@H](O)[C@H](C)O1 [Doxorubicin] | – | enlarged | non proliferative | –
NC(=O)C1CCCc2c1[nH]c1ccc(Cl)cc21 (stereo not shown) [EX-527] | – | – | – | blocked
OO [H2O2, hydrogen peroxide] | – | enlarged | non proliferative | –
CCCC(=O)[O-].[Na+] [sodium butyrate] | – | enlarged | non proliferative | –
Bleomycin Sulphate | – | enlarged | non proliferative | –
